Laboratory results: US20050238734A1, “Detection of nitrosylated proteins” (University of Vermont and State Agricultural College, priority 2004, published 2005)

Key:
lungs of Balb/c mice = test: Detection of S-nitrosylated proteins in frozen lung sections after intratracheal administration; assay type: in vivo, mouse; conditions: 50 microliters of 10 mM intratracheally, about 2 hours, versus PBS
RanGTPase [1] = target: T1, RanGTPase (Mus musculus, UniProt P62827); test: Biotin derivatization of RanGTPase, immunoprecipitation, Western blot with streptavidin-HRP; assay type: cell-based; conditions: after treatment of cells, versus basal
T1 construct: Ran was immunoprecipitated from equivalent amounts of total cell lysates; endogenous in cells; host or cells: C10 mouse lung alveolar type II epithelial cells
Method: Biotin labeling of S-nitrosylated proteins in cell lysates proceeded as follows. At selected time points, cells were rinsed with PBS containing 0.1 mM EDTA and 0.01 mM neocuproine and lysed in HEN buffer containing 0.1% SDS, 0.5% CHAPS, and 20 mM NEM (N-ethylmaleimide) by rocking for 30 minutes at 4° C. The lysates were centrifuged at 14,000 g at 4° C. for about 10 minutes, and the excess NEM used to block sulfhydryl groups (SH) was removed by protein precipitation with acetone. The pellets were resuspended in HEN buffer containing 1% SDS (HENS), and the S-nitrosothiols were reduced and biotinylated by the simultaneous addition of 10 mM sodium ascorbate and 0.05 mM of the sulfhydryl-specific biotinylating agent, MPB (N-(3-maleimidylpropionyl) biocytin, Molecular Probes), for 1 hour at room temperature (RT, about 25° C.). […] Biotinylation of Ran was detected using streptavidin-HRP. […]
To confirm that RanGTPase itself was S-nitrosylated, a biotin derivatization approach was used, including immunoprecipitating RanGTPase and determining biotinylated RanGTPase by Western blotting using streptavidin-HRP. […] Ran was immunoprecipitated from total cell lysates, and biotinylated RanGTPase was determined by Western blotting and by peroxidase-conjugated streptavidin (FIG. 7C, upper panel). […] In the lower panel of FIG. 7C, as a loading control, Ran was detected in whole cell lysates by Western blotting.

C10 cells = test: In situ detection of S-nitrosylated proteins in intact cells (biotin derivatization, streptavidin-FITC, confocal microscopy); assay type: cell-based, mouse; conditions: 1 mM, 1 hour
Method: A line of spontaneously transformed mouse lung alveolar type II epithelial cells (C10) was used in some experiments, as described below. C10 cells were cultured in CMRL1066 medium containing 10% fetal bovine serum (FBS, GIBCO). In experiments involving microscopic analysis, the cells were grown on glass cover slips. At about one hour prior to exposure to a test agent, the medium was switched to phenol red free DMEM/F12 containing 0.5% FBS. Some cells were exposed to S-nitroso-glutathione (GSNO) or S-nitroso-N-acetyl penicillamine (SNAP) for about 1 hour, in the presence of an equimolar concentration of freshly prepared L-cysteine. To monitor S-nitrosylation in response to NOS2 activation, the cells were treated with 10 ng/ml TNF alpha (TNFα) and 100 U/ml interferon gamma (IFNγ), for about 24 hours. Incubation with L-N-monomethyl arginine (L-NMMA) for about 16 hours was used to inhibit endogenous NO production and D-NMMA (D-N-monomethyl arginine) was used as a control. Nuclear export was blocked by leptomycin B (5 ng/ml, exposure for about 12 hours). All experiments were performed in duplicate and were repeated at least three times.
To evaluate the localization of S-nitrosylated proteins in intact cells, the biotin derivatization method described above was used in combination with fluorophore labeling and visualized using confocal microscopy. Cells grown on cover slips were rinsed with PBS containing 0.1 mM EDTA and 0.01 mM neocuproine, and fixed in 4% PFA (paraformaldehyde) for 20 minutes at RT. The cells were permeabilized, and protein SH groups were blocked using HEN buffer containing 2.5% SDS, 0.5% CHAPS, and 20 mM MMTS (methylmethanethiosulfonate) for 20 min at 55° C. with constant shaking. After removal of MMTS, the cells were incubated with 1 mM sodium ascorbate and 0.4 mM biotin-HPDP (N-[6-(biotinamido)hexyl]-3′-(2′-pyridyldithio)propionamide) for about an hour at RT, and the cover slips were then incubated overnight with streptavidin-FITC at 4° C. Blocking was performed using 20 mM NEM for 30 minutes at 4° C., followed by incubation with 0.05 mM MPB and 1 mM sodium ascorbate for 1 hour at RT. The nuclei were stained with 10 microgram/ml PI (propidium iodide) for 30 minutes at RT. The cells were analyzed by confocal microscopy (magnification 40×) using an Olympus BX50 microscope coupled to a Bio-Rad (Hercules Calif.) MRC 1024 confocal scanning laser microscope system. Control experiments were also performed in which blocking of SH groups was omitted, or in which 100 micromolar HgCl2 was added prior to blocking of SH groups with MMTS or NEM. To assess the contribution of endogenous biotinylated proteins, the biotin-label was omitted in some control cover slips. All manipulations were performed in the dark. […]

[2] = tested on: Mouse lung epithelial (C10) cells; test: NO/S-nitrosothiol content of cell lysates by chemiluminescence; assay type: cell-based; conditions: 1 mM GSNO, about one hour
Method: A line of spontaneously transformed mouse lung alveolar type II epithelial cells (C10) was used in some experiments, as described below. […] In experiments involving microscopic analysis, the cells were grown on glass cover slips. At about one hour prior to exposure to a test agent, the medium was switched to phenol red free DMEM/F12 containing 0.5% FBS. Some cells were exposed to S-nitroso-glutathione (GSNO) or S-nitroso-N-acetyl penicillamine (SNAP) for about 1 hour, in the presence of an equimolar concentration of freshly prepared L-cysteine. To monitor S-nitrosylation in response to NOS2 activation, the cells were treated with 10 ng/ml TNF alpha (TNFα) and 100 U/ml interferon gamma (IFNγ), for about 24 hours. […] S-nitrosothiols were detected in cell lysates or immunoprecipitated protein by chemiluminescence, using a nitric oxide analyzer (Ionics, Boulder, Colo.). […] In order to eliminate the contribution of nitrites to the observed photoelectric signal, the cell lysates were incubated with a nitrite quencher, sulfanilamide, and assessed the sulfanilamide resistant NO signal by chemiluminescence. Under these experimental conditions, employing 12 micrograms of protein, S-nitrosthiol was not detected in the sham controls (<5 pmol), but a sulfamilamide-resistant NO signal was detected in lysates from cells treated with GSNO.

RanGTPase [3] = target: T1, RanGTPase; test: SNO content of immunoprecipitated RanGTPase by chemiluminescence; assay type: cell-based; conditions: 1 mM, about 1 hour
Method: S-nitrosothiols were detected in cell lysates or immunoprecipitated protein by chemiluminescence, using a nitric oxide analyzer (Ionics, Boulder, Colo.). Cell lysates were incubated for about 15 minutes in the presence or absence of sulfanilamide (0.5%).
Ran was immunoprecipitated from equivalent amounts of total cell lysates, using a Ran goat polyclonal IgG (Santa Cruz) and protein G-agarose beads. The immunoprecipitates were washed three times with HEN buffer (25 mM HEPES, pH 7.7, 0.1 mM EDTA, 0.01 mM neocuproine) and the immunocomplexes were injected into the purge vessel for NO analysis.
Chemiluminescence was first performed to detect the S-nitrosylation of immunoprecipitated RanGTPase. […] In these experiments, the cells were treated with 1 mM GSNO for about 1 hour, washed, and Ran was immunoprecipitated form the total lysate using a Ran-specific antibody and protein G agarose beads. The immunocomplexes were washed three times and directly injected into the purge vessel using techniques similar to those described in Example 1. As a control, pre-immune IgG was used instead of Ran antibody. Western blot analysis confirmed the presence of RanGTPase in the immunocomplexes (FIG. 7B).

N[C@@H](CCC(=O)N[C@@H](CSN=O)C(=O)NCC(=O)O)C(=O)O [GSNO, S-nitroso-glutathione] was tested, and the “biotin reactivity (S-nitrosylated proteins) in lungs” value (lungs of Balb/c mice) was “markedly increased”, the “biotinylation of RanGTPase” value (RanGTPase [1]) was “enhanced” and the “biotinylation (S-nitrosylated proteins) in intact cells” value (C10 cells) was “enhanced”. The “sulfanilamide-resistant NO signal (S-nitrosothiol) in lysates” value ([2]; 12 micrograms of protein) was “detected”, the “total NO content in lysates” value ([2]; versus non-treated cells) was “increased” and the “SNO content of immunoprecipitated RanGTPase” value (RanGTPase [3]) was “increase”.
